The subject of experiment [1] is HeLa. Put plainly: HeLa cell cytotoxicity, dose response, cytotoxicity control for MITF activator project, CellTiter-Glo luminescence, cherry-pick samples (AID 540259). Format: functional, cell-based. As to conditions: Homo sapiens. (ATP-based viability assays read luminescence as a measure of living cells.)
Experiment [2] deals with T1, Sentrin-specific protease 8 (Homo sapiens, UniProt Q96LD8).
T1 sequence (Q96LD8 whole entry): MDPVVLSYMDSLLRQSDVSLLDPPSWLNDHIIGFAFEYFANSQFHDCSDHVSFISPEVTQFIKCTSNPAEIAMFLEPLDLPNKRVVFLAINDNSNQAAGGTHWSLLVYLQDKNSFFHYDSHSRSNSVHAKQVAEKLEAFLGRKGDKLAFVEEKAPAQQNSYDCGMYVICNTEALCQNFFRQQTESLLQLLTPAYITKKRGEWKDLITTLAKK
Format: functional.

In experiment [3] the target is T2, Sentrin-specific protease 6 (Homo sapiens, UniProt Q9GZR1).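 Also: Luminescence-based dose-response confirmatory assay of SENP6 inhibition, following up an ultra-high-throughput screen.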
T2 sequence (Q9GZR1 whole entry): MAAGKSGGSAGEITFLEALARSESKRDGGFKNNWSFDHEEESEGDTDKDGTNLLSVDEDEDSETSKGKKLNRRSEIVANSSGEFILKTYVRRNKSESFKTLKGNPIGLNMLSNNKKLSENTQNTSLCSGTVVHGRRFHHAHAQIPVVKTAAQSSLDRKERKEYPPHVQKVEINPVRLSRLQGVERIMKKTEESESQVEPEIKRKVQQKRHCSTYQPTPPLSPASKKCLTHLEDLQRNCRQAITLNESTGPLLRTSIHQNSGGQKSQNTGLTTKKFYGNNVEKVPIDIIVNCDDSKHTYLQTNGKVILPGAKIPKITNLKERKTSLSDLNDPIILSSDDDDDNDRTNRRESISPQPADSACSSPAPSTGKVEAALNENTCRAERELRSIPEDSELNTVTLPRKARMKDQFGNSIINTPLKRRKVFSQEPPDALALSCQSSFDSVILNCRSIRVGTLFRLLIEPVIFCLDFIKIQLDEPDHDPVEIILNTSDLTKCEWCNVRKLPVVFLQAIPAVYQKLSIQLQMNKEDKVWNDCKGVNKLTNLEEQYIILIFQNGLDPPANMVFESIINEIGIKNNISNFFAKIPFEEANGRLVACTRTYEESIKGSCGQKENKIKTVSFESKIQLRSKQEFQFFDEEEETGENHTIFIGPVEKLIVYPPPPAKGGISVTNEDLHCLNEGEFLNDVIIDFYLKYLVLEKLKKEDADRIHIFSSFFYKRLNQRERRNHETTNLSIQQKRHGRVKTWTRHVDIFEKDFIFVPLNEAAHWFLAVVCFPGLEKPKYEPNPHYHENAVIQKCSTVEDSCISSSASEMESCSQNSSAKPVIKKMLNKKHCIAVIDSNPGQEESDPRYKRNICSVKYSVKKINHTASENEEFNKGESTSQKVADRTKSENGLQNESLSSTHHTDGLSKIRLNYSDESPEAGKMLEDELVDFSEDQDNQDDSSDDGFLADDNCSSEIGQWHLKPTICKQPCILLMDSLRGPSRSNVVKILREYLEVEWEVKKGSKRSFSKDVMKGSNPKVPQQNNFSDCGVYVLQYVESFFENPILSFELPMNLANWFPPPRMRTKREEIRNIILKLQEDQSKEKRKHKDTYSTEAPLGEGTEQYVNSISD
In kind it is functional.

In experiment [4] the target is T3, Caspase-3 (Homo sapiens, UniProt P42574).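 Also: Dose-response selectivity test against caspase-3 for candidate inhibitors of sentrin-specific proteases (SENPs).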
T3 sequence (P42574 whole entry): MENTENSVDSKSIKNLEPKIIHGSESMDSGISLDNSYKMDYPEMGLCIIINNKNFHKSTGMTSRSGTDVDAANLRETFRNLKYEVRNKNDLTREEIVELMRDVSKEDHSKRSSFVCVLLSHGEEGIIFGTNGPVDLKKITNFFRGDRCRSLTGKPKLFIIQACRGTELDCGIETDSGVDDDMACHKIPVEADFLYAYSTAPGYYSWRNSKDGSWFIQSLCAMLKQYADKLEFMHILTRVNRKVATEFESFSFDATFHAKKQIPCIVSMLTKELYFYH
Format: functional.

In experiment [5] the target is T4, Sentrin-specific protease 7 (Homo sapiens, UniProt Q9BQF6).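 Also: Luminescence-based dose-response confirmation of ultra-high-throughput screening hits, measuring inhibition of SENP7.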
T4 sequence (Q9BQF6 whole entry): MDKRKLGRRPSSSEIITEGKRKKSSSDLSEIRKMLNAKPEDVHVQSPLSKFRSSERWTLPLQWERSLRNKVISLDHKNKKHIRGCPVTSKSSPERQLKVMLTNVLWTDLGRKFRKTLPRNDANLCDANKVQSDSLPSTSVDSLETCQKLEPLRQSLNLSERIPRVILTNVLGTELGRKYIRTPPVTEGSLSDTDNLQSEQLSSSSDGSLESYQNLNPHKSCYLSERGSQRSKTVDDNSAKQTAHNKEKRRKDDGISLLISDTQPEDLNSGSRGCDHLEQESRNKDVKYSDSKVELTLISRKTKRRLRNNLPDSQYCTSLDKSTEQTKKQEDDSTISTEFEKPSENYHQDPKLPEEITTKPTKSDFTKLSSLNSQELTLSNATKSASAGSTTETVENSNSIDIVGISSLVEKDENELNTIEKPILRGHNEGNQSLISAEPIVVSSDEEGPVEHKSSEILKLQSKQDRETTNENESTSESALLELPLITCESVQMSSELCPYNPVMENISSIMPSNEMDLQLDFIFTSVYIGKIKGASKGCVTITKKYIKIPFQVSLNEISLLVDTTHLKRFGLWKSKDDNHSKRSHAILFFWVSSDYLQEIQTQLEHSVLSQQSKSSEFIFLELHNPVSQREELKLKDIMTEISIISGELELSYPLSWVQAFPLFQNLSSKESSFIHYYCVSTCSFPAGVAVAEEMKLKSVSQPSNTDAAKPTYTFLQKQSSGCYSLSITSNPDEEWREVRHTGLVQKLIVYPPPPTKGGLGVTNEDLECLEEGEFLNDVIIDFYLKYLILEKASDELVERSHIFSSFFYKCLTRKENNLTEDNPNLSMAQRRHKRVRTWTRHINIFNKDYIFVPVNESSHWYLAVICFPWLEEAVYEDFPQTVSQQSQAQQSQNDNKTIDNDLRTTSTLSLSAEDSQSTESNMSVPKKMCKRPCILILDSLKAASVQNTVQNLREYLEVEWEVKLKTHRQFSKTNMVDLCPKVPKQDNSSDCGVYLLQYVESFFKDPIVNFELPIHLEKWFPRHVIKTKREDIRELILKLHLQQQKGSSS
In kind it is functional.

In experiment [6] the target is T5, Corticotropin-releasing factor receptor 2/Corticotropin-releasing factor-binding protein (Homo sapiens, UniProt P24387+Q13324).
T5 sequence (Q13324 whole entry): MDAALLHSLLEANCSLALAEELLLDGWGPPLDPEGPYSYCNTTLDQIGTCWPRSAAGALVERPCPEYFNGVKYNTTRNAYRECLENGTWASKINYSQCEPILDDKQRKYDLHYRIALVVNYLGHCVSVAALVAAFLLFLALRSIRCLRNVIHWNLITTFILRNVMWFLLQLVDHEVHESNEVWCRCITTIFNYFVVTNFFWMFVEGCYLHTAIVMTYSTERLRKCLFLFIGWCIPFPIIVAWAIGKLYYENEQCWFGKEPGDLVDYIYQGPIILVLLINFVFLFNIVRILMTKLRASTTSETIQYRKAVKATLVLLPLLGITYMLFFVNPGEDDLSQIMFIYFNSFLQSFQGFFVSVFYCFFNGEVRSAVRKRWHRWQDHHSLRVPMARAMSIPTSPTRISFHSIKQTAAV
T5 sequence (P24387 whole entry): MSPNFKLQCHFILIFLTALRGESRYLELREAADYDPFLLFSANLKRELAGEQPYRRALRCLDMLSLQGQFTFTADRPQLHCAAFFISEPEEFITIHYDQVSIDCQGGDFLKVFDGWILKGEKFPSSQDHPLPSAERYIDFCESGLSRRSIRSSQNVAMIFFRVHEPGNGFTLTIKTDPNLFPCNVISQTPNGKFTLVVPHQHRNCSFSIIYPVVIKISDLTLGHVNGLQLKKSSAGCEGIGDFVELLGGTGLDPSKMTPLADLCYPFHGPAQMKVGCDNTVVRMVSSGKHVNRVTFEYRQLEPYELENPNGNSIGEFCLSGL
Description: Dose Response confirmation of uHTS hits for small molecule antagonists of the CRF-binding protein and CRF-R2 receptor complex. Format: functional. The following applies: read-out: IC50_Mean.

The target in experiment [7] is T5, Corticotropin-releasing factor receptor 2/Corticotropin-releasing factor-binding protein. Put plainly: activators of CRF receptor 2 with binding protein – uHTS hits, confirmation (AID 602473). In kind it is functional. The following applies: read-out: EC50_Mean.
A short description of experiment [8]: CRF-BP/CRF-R2 complex antagonists, dose response, cell-based, uHTS hits, 384-well (AID 651639). As to conditions: read-out: IC50_Mean. Format: functional, Homo sapiens.
A short description of experiment [9]: Luminescence Cell-Based Dose Confirmation HTS to Identify Activators of 5'UTR Stem-Loop Driven Alpha-Synuclein mRNA Translation in H4 Neuroglioblastoma Cells. [Related pubchem assays: 1829 (Project Summary), 1814 (Primary HTS)]. Format: functional.
Experiment [10] can be described thus: Luminescence Cell-Based Dose Response HTS to Identify Activators of Luciferase Translation or Activity in H4 […] Cells. [Related pubchem assays: 1829 (Project Summary), 1814 (Primary HTS)]. Format: functional.
The test system of experiment [11] is H4. Description: Luminescence Cell-Based Dose Response HTS to Identify Activators of 5'UTR Stem-Loop Driven Prion Protein mRNA Translation in H4 Neuroglioblastoma Cells. [Related pubchem assays: 1829 (Project Summary), 1814 (Primary HTS)]. Format: functional. The following applies: Homo sapiens.
Experiment [12] deals with SN12K1. Description: cells. In kind it is functional. The following applies: Homo sapiens.
Experiment [13] in a line: CEM21 lymphoblast cell cytotoxicity, dose response, cytotoxicity control for viral fusion inhibitor project, CellTiter-Glo luminescence, cherry-picked (AID 652042).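 Also: potency for signal decrease meaning cytotoxicity.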 In kind it is functional, cell-based.
Experiment [14] in a line: off-target signal loss in HeLa-CEM21 co-culture – HeLa F-luc CTL cells, cherry-picked, counter-screen for HIV-1 Env fusion inhibitor project, dose response (AID 652040).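 Also: potency for signal decrease marking cytotoxic or nonspecific inhibition.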 Format: functional, cell-based. A general note: A counterscreen serves to expose hits that act by an unwanted route or on another target.
Experiment [15] can be described thus: ZM109 Env clade C HIV-1 fusion inhibitors, dose response, HeLa effector, CEM target cells, luciferase, cherry-pick (AID 652058). In kind it is functional, cell-based.
Experiment [16] is described as follows: inhibitors of HIV Env-driven cell fusion, dose response, cherry-pick (AID 652057). In kind it is functional, cell-based.
The nature of experiment [17]: inhibitors of clade B AD8 Env fusion, dose response, cell-based, cherry-pick (AID 652062).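 Also: luciferase signal from cell-cell fusion driven by HIV-1 clade B AD8 Env; potency is for inhibitors of fusion seen as a drop in luminescence.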 Format: functional.
Experiment [18] relates to Vero. Description: cells. In kind it is functional. The following applies: Chlorocebus sabaeus.

The source made the active and inactive calls. Some results are limits rather than exact numbers.

`Cc1cccc(-c2nnc3sc(-c4ccccc4)nn23)c1`: in [1], the half-maximal activity concentration (AC50) is 189 µM (active).

For the compound `COc1cc(C=O)ccc1OCc1cccc(Br)c1`, in experiment [1], the AC50 is 85.9 µM (active).

Regarding `Cc1cccc(-c2cc3nc(-c4ccccc4)cc(O)n3n2)c1`, the IC50 is 2.01 µM (active) in experiment [2], 3.88 µM (active) in [3], 3.86 µM (active) in experiment [4] and 2.94 µM (active) in [5].

With `Cc1cccnc1NC(=O)Nc1cccc(Cl)c1`, the AC50 in experiment [1] is > 350 µM (inactive).

As for `CN(C)c1cccc(C(=O)OCC(=O)Nc2ccccc2Sc2ccccc2)c1`, the figures for the IC50 in experiment [6] and in [8] were 13.1 µM (active) and > 20 µM (inactive), respectively. Further, the EC50 in experiment [7] was > 53 µM (inactive).

With `CCN(CC)C(=O)c1cc2sc3ccccc3c2s1`, in experiment [1], the concentration at half-maximal activity (AC50) is 46.9 µM (active).

As to `CN(C(=O)c1ccccc1)c1nc2ccccc2s1`, the IC50 in experiment [2] was 50.4 µM (active); in experiment [3], 21.1 µM (active); in experiment [4], 15.6 µM (active); in experiment [5], 6.81 µM (active).

In the case of `Cc1cc(N2CCCCC2)n2ncc(-c3ccccc3)c2n1`, the IC50 in experiment [2] is 12.4 µM (active); in [3], 13.8 µM (active); in experiment [4] it was 30.1 µM (active); in experiment [5], 6.65 µM (active).

Regarding `CC1CCC(NC(=O)c2ccc(NS(=O)(=O)c3ccc4[nH]c(O)nc4c3)cc2)CC1` (stereo not given), the figures for the EC50 in experiment [9], in experiment [10] and in experiment [11] were 23.4 µM (active), 27.8 µM (active) and 8.97 µM (active), respectively. Also, in experiment [1], the half-maximal activity concentration (AC50) is 53.8 µM (active).

In the case of `CC(C)=C1C2CCC1C(C(=O)Nc1sc(C)c(-c3ccc(C(C)C)cc3)c1C(N)=O)C2C(=O)O` (stereo not given), the IC50 in [6] was 5.03 µM (active); in experiment [8] it was 18.8 µM (active). The EC50 in experiment [7] was 15.9 µM (active).

On to `Cn1c(=O)c2ncn(CC(=O)Nc3cccc(-c4nc5ccccc5s4)c3)c2n(C)c1=O`, for which the IC50 is 26.1 µM (active) in experiment [2], 23.4 µM (active) in experiment [3], 21.4 µM (active) in experiment [4] and 15.6 µM (active) in experiment [5].

Turning to `CN1CCc2[nH]c3ccccc3c2C1`, the GI50 in experiment [12] was > 100 µM (inactive).

Take `Cc1cc(C(F)(F)F)n(-c2nc(C(=O)N/N=C/c3ccc(F)cc3)cs2)n1`: the IC50 was 10.7 µM (active) in [6] and > 20 µM (inactive) in experiment [8]. Besides, in [7], the EC50 is > 53 µM (inactive).

Regarding `COC(=O)[C@]12C[C@H](CC(=O)NCc3ccccc3)C(=O)N(CCC3=CCCCC3)C1=C[C@H](C(C)(C)C)O[C@@H]2C`, the concentration at half-maximal activity (AC50) in experiment [13] is 32.7 µM (active); in experiment [14], 2.75 µM (active); in experiment [15] it was 3.2 µM (active); in experiment [16], 1.76 µM (active); in experiment [17], 4.31 µM (active).

For the compound `O=C(COc1cccc2cccnc12)N/N=C/c1cccn1-c1ccc(F)cc1`, in experiment [18], the CC50 is > 25 µM (active).

Broadly, the AC50 is the midpoint of the concentration-response curve, whichever way the signal moves. The GI50 is the concentration giving 50% growth inhibition. What is called CC50 is the concentration giving 50% cytotoxicity.

(Values after ChEMBL document CHEMBL1201862, “PubChem BioAssay data set” (2004).)
